Assays:
PDCoV M^pro [1] = target: T1, PDCoV M^pro (Porcine deltacoronavirus, UniProt A0A140ESF0); assay: fluorogenic peptide cleavage assay, progress-curve inactivation; assay type: biochemical; details: covalent; Michael acceptor N3 derivative; assay similar to N3
[2] = target: Porcine deltacoronavirus (PDCoV) main protease (M^pro) (Porcine deltacoronavirus (PDCoV)); assay: crystal structure
PDCoV M^pro [3] = target: T1, PDCoV M^pro; assay: fluorogenic peptide cleavage assay, progress-curve inactivation; assay type: biochemical; details: covalent; irreversible, Cys-144, active site; substrate MCA-AVLQSGFR-Lys(Dnp)-Lys-NH2 50 µM; enzyme 2 µM; pH 7.3, 30 °C

| Compound | KI (inactivation) (PDCoV M^pro [1]) | other results |
| --- | --- | --- |
| Cc1cc(C(=O)N[C@@H](C)C(=O)N[C@H](C(=O)N[C@@H](CC(C)C)C(=O)N[C@H](/C=C/C(=O)OC(C)C)C[C@@H]2CCNC2=O)C(C)C)no1 [M14] | 7.56 ± 0.26 µM | – |
| Porcine deltacoronavirus (PDCoV) main protease (M^pro) (enzyme) | – | stoichiometry N [2]: 2 |
| COc1ccc(COC(=O)/C=C/[C@H](C[C@@H]2CCNC2=O)NC(=O)[C@H](CC(C)C)NC(=O)[C@@H](NC(=O)[C@H](C)NC(=O)c2cc(C)on2)C(C)C)cc1 [M25] | 8.8 ± 0.15 µM | – |
| Cc1cc(C(=O)N[C@@H](C)C(=O)N[C@H](C(=O)N[C@@H](CC(C)C)C(=O)N[C@H](/C=C/C(=O)OCc2ccccc2)C[C@@H]2CCNC2=O)C(C)C)no1 [N3] | – | KI (inactivation) (PDCoV M^pro [3]): 12 ± 0.13 µM |

From publication PMC8949103 (Viruses, 2022)
